Results reported in patent US7026475B2, “Positive allosteric AMPA receptor modulators (PAARM), processes for preparing them, and their use as pharmaceutical compositions” (Boehringer Ingelheim Pharma GmbH & Co. KG, priority 2001, dated 2006).

Test system: AMPA receptors
Assay: Electrophysiological measurement of intensification of the agonist-induced current on cells expressing functional AMPA receptors
Type: cell-based
Parameters: key: + good; + + very good
Conditions: positive allosteric influence on agonist-induced current; tested at concentrations between 0.3 μmol and 300 μmol
Description: The effect of the compounds according to the invention as AMPA receptor modulators was measured electrophysiologically on cells which express functional AMPA receptors. Investigations were carried out to see whether the test substances have a positive allosteric influence on the agonist-induced current.
The test was carried out at concentrations of between 0.3 μmol and 300 μmol.

Structure (SMILES) | Intensification of the Agonist-Induced Current, Activity
CC1Nc2ccc(Cl)c3cccc(c23)S1(=O)=O (centres unmarked) [Example 2, 6-chloro-2-methyl-2,3-dihydronaphtho[1,8-de][1,3]thiazine-1,1-dioxide] | + +
CC1Nc2cccc3cccc(c23)S1(=O)=O (centres unmarked) [Example 1, 2-methyl-2,3-dihydronaphtho[1,8-de][1,3]thiazine-1,1-dioxide] | +
